Experimental data taken from article PMC7044277 (Nature Communications, 2020).
Where “and” joins values, the source holds several entries; their conditions need not be identical. Equal values may be shown once.

Columns and labels:
Test in all cases: β-arrestin2 recruitment (Tango)
Type in all cases: cell-based
5HT2C = target: T1, 5HT2C (Homo sapiens, UniProt P28335); conditions: Fig_S10m; for β-arrestin2 recruitment response in presence of serotonin (replicate values): +10μM serotonin; for β-arrestin2 recruitment response (dose-response source data, replicate values): drug alone
T1 sequence (P28335 33-458): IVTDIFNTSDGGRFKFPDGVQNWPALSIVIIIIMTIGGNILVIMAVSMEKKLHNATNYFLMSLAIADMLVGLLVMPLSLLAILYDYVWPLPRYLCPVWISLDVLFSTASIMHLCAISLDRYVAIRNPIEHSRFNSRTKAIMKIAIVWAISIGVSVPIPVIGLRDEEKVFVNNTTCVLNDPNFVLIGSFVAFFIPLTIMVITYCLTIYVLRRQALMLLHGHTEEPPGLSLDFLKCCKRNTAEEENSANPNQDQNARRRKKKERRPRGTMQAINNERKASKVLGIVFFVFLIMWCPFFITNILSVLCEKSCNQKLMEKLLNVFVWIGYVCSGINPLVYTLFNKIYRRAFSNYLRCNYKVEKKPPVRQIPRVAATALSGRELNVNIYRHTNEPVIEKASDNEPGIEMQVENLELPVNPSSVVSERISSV

5HT6 = target: T2, 5HT6 (Homo sapiens, UniProt P50406); conditions: Fig_S10p, agonist mode
T2 construct: expressed in transfected cells; host or cells: HTLA cells expressing TEV-fused β-arrestin2

5HT7A = target: T3, 5HT7A (Homo sapiens, UniProt P34969); conditions: for β-arrestin2 recruitment response, replicate points of concentration-response curve: Fig_S10q, agonist mode
T3 construct: expressed in transfected cells; host or cells: HTLA cells expressing TEV-fused β-arrestin2
T3 sequence (P34969 1-445 isoform P34969-2): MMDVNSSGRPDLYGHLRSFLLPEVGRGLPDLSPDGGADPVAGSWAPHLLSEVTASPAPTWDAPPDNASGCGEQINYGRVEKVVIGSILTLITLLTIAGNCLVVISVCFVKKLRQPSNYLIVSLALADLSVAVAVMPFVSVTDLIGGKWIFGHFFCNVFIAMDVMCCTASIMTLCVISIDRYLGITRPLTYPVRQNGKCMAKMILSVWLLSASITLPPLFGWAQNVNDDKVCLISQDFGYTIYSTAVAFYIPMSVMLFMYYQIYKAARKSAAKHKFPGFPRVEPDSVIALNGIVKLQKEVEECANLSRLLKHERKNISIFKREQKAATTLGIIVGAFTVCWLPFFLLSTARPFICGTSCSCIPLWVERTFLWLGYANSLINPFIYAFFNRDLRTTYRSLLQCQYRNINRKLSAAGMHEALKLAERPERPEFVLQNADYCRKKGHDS

T2 sequence (P50406 whole entry, the tested form may be a part): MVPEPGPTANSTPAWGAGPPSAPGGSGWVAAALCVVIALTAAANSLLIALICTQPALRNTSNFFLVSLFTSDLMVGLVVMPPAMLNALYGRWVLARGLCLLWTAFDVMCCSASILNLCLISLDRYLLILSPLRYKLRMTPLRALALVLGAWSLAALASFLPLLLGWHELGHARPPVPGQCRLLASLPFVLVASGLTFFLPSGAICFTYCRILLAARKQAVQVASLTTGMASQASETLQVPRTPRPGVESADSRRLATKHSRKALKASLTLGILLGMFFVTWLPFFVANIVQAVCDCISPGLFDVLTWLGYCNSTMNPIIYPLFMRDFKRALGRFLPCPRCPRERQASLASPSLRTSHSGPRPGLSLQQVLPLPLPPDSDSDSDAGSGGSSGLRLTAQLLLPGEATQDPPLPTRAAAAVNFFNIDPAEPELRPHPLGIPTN

CCOc1cccc2cc([C@@H](C)NCC3(O)CCCCC3)oc12 [O4RE6]
β-arrestin2 recruitment response in presence of serotonin (replicate values) (5HT2C; Log[Drug] -8): 71.3267 and 75.4455 and 66.4208 and 75.6262 and 64.4484 and 59.5931 and 70.3904 and 75.8595 and 73.1664 | β-arrestin2 recruitment response (dose-response source data, replicate values) (5HT2C; Log[Drug] -8): 1.2751 and -0.6351 and 2.803 and -0.01928 and -0.2938 and -0.4398 and 3.201 and 7.224 and -1.315 | β-arrestin2 recruitment response in presence of serotonin (replicate values) (5HT2C; Log[Drug] -8.52): 58.0598 and 61.1071 and 60.9165 and 75.2534 and 73.2353 and 72.7725 and 80.2506 and 68.3081 and 73.8075 | β-arrestin2 recruitment response (dose-response source data, replicate values) (5HT2C; Log[Drug] -8.52): 1.412 and -1.374 and -2.167 and -0.9173 and -0.6234 and -0.001836 and -1.0517 and 2.438 and -0.7292 | β-arrestin2 recruitment response in presence of serotonin (replicate values) (5HT2C; Log[Drug] -9): 62.3446 and 66.0878 and 69.0787 and 68.4846 and 71.5679 and 75.9558 and 57.0421 and 71.8594 and 68.3133 | β-arrestin2 recruitment response (dose-response source data, replicate values) (5HT2C; Log[Drug] -9): 8.947 and 0.2944 and -1.358 and 0.06794 and 1.215 and 1.023 and 1.659 and -1.676 and 1.911 | β-arrestin2 recruitment response in presence of serotonin (replicate values) (5HT2C; Log[Drug] -9.52): 55.4527 and 57.9556 and 67.8156 and 72.3217 and 60.5213 and 59.5912 and 64.5922 and 60.3604 and 70.7827 | β-arrestin2 recruitment response (dose-response source data, replicate values) (5HT2C; Log[Drug] -9.52): 0.7577 and 0.9406 and -1.056 and 0.774 and -0.8934 and -0.3755 and 4.117 and -0.7424 and 3.815 | β-arrestin2 recruitment response, replicate points of concentration-response curve (5HT6; Log[Drug] -6): 0.6179 | β-arrestin2 recruitment response, replicate points of concentration-response curve (5HT6; Log[Drug] -6.52): 2.255 and 6.005 and -0.9593 and 0.5245 and -8.852 and -1.095 and 3.803 and 14.7296 and 1.5314 | β-arrestin2 recruitment response, replicate points of concentration-response curve (5HT6; Log[Drug] -7): 2.737 and -0.8021 and 0.3035 and -9.828 and -11.4107 and -3.313 and -1.206 and -3.514 and 45.5574 | β-arrestin2 recruitment response, replicate points of concentration-response curve (5HT6; Log[Drug] -7.52): 9.506 and 14.1402 and 17.6522 and -10.6377 and -5.208 and -2.549 and -1.295 and 2.071 and -1.605 | β-arrestin2 recruitment response, replicate points of concentration-response curve (5HT6; Log[Drug] -8): -0.645 and 1.165 and 0.2927 and -3.147 and 13.2695 and -12.1837 and -4.853 and 0.614 and -2.656 | β-arrestin2 recruitment response, replicate points of concentration-response curve (5HT6; Log[Drug] -8.52): -0.1626 and 4.9103 and -0.3035 and -9.285 and -10.3985 and -13.5456 and -5.689 and -5.904 and -4.713 | β-arrestin2 recruitment response, replicate points of concentration-response curve (5HT6; Log[Drug] -9): 5.962 and 3.36 and 0.775 and -2.264 and 6.672 and -11.4475 and -4.468 and 0.05179 and -2.649 | β-arrestin2 recruitment response, replicate points of concentration-response curve (5HT6; Log[Drug] -9.52): 0.7804 and -0.09756 and 1.653 and -9.57 and -13.2511 and -10.2512 and -0.9174 and -5.319 and -2.049 | β-arrestin2 recruitment response, replicate points of concentration-response curve (5HT6; Log[Drug] -10): -1.848 and 4.038 and 4.894 and -4.813 and -13.9689 and -2.9539 and 13.3388 and -5.371 and 2.353 | β-arrestin2 recruitment response, replicate points of concentration-response curve (5HT6; Log[Drug] -10.52): 1.577 and 1.859 and -0.3143 and -10.7113 and -10.242 and -8.8801 and -0.04439 and -4.439 and 2.981 | β-arrestin2 recruitment response, replicate points of concentration-response curve (5HT6; Log[Drug] -11): -1.149 and 2.054 and 0.1355 and -7.003 and -10.3432 and 9.598 and -3.27 and -3.4993 and -5.608 | β-arrestin2 recruitment response, replicate points of concentration-response curve (5HT6; Log[Drug] -11.52): -1.182 and 12.7148 and 3.068 and 1.2699 and -8.8985 and -8.135 and 6.251 and -5.941 and -5.608 | concentration at which the receptor is activated (5HT7A; 5HT7A, agonist activity only at high concentrations): over 1 μM | β-arrestin2 recruitment response, replicate points of concentration-response curve (5HT7A; Log[Drug] -8.52): -12.5786 and -8.044 and 1.071 and -9.7421 and 32.4405 and 49.1467 and -14.2149 and 16.5223 and -11.2331 and 4.354 and 35.2448 and 10.2419 | β-arrestin2 recruitment response, replicate points of concentration-response curve (5HT7A; Log[Drug] -9): 10.8788 and 4.459 and -14.1005 and -17.9842 and -16.1246 and -21.1449 and -7.127 and 62.1289 and 35.3983 and -32.9912 and 26.9263 and -33.8761 | β-arrestin2 recruitment response, replicate points of concentration-response curve (5HT7A; Log[Drug] -9.52): -17.7926 and -13.0806 and -8.59 and 76.7429 and -5.732 and -9.941 and -9.587 and 8.198 and -49.3687 and 45.8761 | β-arrestin2 recruitment response, replicate points of concentration-response curve (5HT7A; Log[Drug] -10): 8.776 and -5.649 and -4.779 and -6.75 and 22.3693 and -13.4231 and 66.8562 and 10.9818 and 67.3785 and -0.5782 and 14.0649 and -7.044 | β-arrestin2 recruitment response, replicate points of concentration-response curve (5HT7A; Log[Drug] -10.52): 3.024 and -18.69 and -0.8855 and -5.258 and -47.1876 and -14.9154 and -10.2215 and 7.524 and 59.795 and 14.1475 and 8.932 and -11.705 | β-arrestin2 recruitment response, replicate points of concentration-response curve (5HT7A; Log[Drug] -11): 2.617 and -4.127 and -1.973 and 44.555 and 24.1984 and -23.678 and 55.762 and 41.0711 and -15.762 and -13.3333 and -38.2183 and -14.0059 | β-arrestin2 recruitment response, replicate points of concentration-response curve (5HT7A; Log[Drug] -11.52): 10.0328 and 5.163 and -15.1797 and -41.8076 and 36.1292 and 53.417 and 13.0909 and -3.233 and 13.8777 and 47.469 and -14.7611 and -41.4631 | β-arrestin2 recruitment response, replicate points of concentration-response curve (5HT7A; Log[Drug] -12): -10.6692 and 6.787 and -7.578 and 7.025 and -23.6244 and 50.44 and -4.476 and 12.3769 and -7.901 and 14.5015 and 35.0914 and -7.516
